Tested on: ILC2s
Test: In vitro activation of purified ILC2s, type 2 cytokine protein by intracellular staining
Format: cell-based, mouse
Description: FIGS. 10a-10d: FIG. 10a, Ki67 expression in intestinal ILC2s after an overnight in vitro stimulation with NmU23 alone (100 ng/mL, Phoenix Pharmaceutical) or NmU23 together with the survival cytokines Interleukin (IL)-2 and/or IL-7 (10 ng/mL). FIG. 10b, Ki67 expression in intestine ILC2 after in vivo administration of NmU23 (4 g/day during 2 days). n=5. FIG. 10c, ILC2-derived type 2 cytokines (IL-5, IL-13 and Amphiregulin (Areg)) in sorted intestine ILC2 after an overnight stimulation with NmU23, mouse recombinant IL-25 or IL-33 (R&D) (10, 50 and 100 ng/mL). Negative control: unstimulated ILC2, Positive control: ILC2 activated with phorbol 12-myristate 13-acetate (PMA, 50 ng/ml) plus ionomycin (500 ng/ml). n=3. FIG. 10d, Dot plots representative of the cytokine production with increasing dose of NmU23, rIL-25 and rIL-33. *P<0.05; **P<0.01; ***P<0.001; ****P<0.0001; ns not significant.
For in vitro experiments, purified lung and small intestine lamina propria ILC2s were FBS starved for 2 hours prior to stimulation and cultured in complete RPMI (supplemented with 10% foetal bovine serum (FBS), 1% hepes, sodium pyruvate, glutamine, streptomycin and penicillin) at 37° C. For mRNA analysis, ILC2s were stimulated overnight with recombinant mouse Neuromedin U 23 peptide (NmU23, 100 ng/mL; Phoenix pharmaceuticals). Both NmU23-stimulated and control ILC2s were cultured in the presence of IL-2 and IL-7 (10 ng/mL; Peprotech). ILC2s were lysed using RLT buffer (Qiagen). For cytokine protein analysis, ILC2s were incubated exclusively with brefeldin A (eBioscience) for 12 hours prior to intracellular staining. For in vivo experiments, B6 mice were injected intraperitoneal with NmU23 peptide (2 g/day) during Nippostrongylus brasiliensis infection or with a single dose of NmU23 (20 μg) and analyzed after 8 hours. Control mice were treated with PBS alone.
Intracellular staining was performed using IC fixation/permeabilization kit (eBioscience). Flow cytometry analysis and cell sorting were performed using BD LSRFORTESSA and BD FACSAria flow cytometers (BD Biosciences). […]

## Neuromedin U (FKAEYQSPSVGQSKGYFLFRPRN) [NmU]
PMA 50 ng/ml plus ionomycin 500 ng/ml, sorted intestine ILC2, overnight
  up-regulation of innate type 2 cytokines relative to PMA-ionomycin positive control: comparable to the effects observed with PMA-ionomycin activation
Sorted intestine ILC2, overnight, 10, 50 and 100 ng/mL (FIGS. 10c,10d)
  expression of innate IL-5 and IL-13 compared to IL-33 and IL-25: prompt, and very robust expression

— patent US20190358264A1, “METHODS OF TREATING DISEASES ASSOCIATED WITH ILC2 CELLS” (Limm Therapeutics, SA, priority 2016, published 2019)
